Measurements as given in article PMC6458159, “Mechanisms of redundancy and specificity of the Aspergillus fumigatus Crh transglycosylases” (Nature Communications, 2019).

Biological target: T1, AfCrh5 (Aspergillus fumigatus, UniProt Q8J0P4)
T1 construct: gene crh5; GST cleaved off by PreScission, N-terminal His6 kept; E. coli BL21(DE3) pLysS
T1 sequence (Q8J0P4 22-275): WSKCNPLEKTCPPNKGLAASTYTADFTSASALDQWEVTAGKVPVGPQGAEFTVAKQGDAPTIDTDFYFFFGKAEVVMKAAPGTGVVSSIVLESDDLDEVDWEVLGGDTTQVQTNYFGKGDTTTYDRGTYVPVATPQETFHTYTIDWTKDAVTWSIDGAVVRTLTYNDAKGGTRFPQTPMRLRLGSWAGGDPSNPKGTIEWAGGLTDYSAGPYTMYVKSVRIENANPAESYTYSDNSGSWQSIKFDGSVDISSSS
Test: fluorescent transglycosylation filter-paper assay
Type: biochemical
Details: acceptor; donor carboxymethyl-chitin; 50 mM citrate pH 4.9, 37 °C; labelled compound
Text: fluorescent transglycosylation filter-paper assay on AfCrh5

Substance	Km
SR-labelled laminaripentaose [L5-SR]	12 ± 3 µM
SR-labelled chitopentaose [CH5-SR]	3.5 ± 0.4 µM
